According to publication PMC8269135, “Diethylstilbestrol, a Novel ANO1 Inhibitor, Exerts an Anticancer Effect on Non-Small Cell Lung Cancer via Inhibition of ANO1” (International Journal of Molecular Sciences, 2021):
pIC50: −log10 of the molar value.

Legend:
[1] = target: T1, cystic fibrosis transmembrane conductance regulator (CFTR) (Homo sapiens, UniProt P13569); experiment: YFP fluorescence and Ussing chamber short-circuit current in FRT-hCFTR cells, […]; format: cell-based
T1 construct: human CFTR expressed in FRT cells

Anoctamin1 (ANO1) = target: T2, Anoctamin1 (ANO1) (Homo sapiens, UniProt Q5XXA6); experiment: YFP quenching assay in FRT-ANO1 cells; short-circuit current; whole-cell patch clamp in HEK293; format: cell-based
T2 construct: human ANO1 expressed in FRT cells (YFP assay, Ussing chamber) and HEK293 cells (patch clamp)
T2 sequence (Q5XXA6 1-986): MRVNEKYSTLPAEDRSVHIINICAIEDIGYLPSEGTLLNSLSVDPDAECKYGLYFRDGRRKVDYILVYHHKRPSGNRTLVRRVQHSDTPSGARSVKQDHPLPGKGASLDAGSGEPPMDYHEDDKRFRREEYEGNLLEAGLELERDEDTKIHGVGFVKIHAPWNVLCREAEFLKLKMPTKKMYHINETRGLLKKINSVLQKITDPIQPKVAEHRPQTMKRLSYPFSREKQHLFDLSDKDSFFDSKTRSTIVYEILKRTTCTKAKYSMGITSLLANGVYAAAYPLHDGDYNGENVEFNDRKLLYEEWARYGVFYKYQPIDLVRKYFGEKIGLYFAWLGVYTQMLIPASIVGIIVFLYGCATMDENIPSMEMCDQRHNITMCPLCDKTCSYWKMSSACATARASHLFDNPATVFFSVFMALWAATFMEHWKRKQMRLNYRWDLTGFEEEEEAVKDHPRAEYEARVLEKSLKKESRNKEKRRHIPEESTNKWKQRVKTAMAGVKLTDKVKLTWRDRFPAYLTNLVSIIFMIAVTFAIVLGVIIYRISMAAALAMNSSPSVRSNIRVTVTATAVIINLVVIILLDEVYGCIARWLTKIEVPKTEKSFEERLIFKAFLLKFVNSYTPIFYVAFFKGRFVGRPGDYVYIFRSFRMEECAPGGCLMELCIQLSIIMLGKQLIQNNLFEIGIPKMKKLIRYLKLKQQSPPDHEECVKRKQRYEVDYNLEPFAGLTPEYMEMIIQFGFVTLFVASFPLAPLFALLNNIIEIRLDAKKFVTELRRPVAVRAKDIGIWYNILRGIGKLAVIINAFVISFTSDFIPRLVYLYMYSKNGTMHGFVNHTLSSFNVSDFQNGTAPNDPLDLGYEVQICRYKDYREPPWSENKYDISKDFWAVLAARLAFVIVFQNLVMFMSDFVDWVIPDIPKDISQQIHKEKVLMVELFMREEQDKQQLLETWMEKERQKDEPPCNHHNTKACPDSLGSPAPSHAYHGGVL

T1 sequence (P13569 whole entry): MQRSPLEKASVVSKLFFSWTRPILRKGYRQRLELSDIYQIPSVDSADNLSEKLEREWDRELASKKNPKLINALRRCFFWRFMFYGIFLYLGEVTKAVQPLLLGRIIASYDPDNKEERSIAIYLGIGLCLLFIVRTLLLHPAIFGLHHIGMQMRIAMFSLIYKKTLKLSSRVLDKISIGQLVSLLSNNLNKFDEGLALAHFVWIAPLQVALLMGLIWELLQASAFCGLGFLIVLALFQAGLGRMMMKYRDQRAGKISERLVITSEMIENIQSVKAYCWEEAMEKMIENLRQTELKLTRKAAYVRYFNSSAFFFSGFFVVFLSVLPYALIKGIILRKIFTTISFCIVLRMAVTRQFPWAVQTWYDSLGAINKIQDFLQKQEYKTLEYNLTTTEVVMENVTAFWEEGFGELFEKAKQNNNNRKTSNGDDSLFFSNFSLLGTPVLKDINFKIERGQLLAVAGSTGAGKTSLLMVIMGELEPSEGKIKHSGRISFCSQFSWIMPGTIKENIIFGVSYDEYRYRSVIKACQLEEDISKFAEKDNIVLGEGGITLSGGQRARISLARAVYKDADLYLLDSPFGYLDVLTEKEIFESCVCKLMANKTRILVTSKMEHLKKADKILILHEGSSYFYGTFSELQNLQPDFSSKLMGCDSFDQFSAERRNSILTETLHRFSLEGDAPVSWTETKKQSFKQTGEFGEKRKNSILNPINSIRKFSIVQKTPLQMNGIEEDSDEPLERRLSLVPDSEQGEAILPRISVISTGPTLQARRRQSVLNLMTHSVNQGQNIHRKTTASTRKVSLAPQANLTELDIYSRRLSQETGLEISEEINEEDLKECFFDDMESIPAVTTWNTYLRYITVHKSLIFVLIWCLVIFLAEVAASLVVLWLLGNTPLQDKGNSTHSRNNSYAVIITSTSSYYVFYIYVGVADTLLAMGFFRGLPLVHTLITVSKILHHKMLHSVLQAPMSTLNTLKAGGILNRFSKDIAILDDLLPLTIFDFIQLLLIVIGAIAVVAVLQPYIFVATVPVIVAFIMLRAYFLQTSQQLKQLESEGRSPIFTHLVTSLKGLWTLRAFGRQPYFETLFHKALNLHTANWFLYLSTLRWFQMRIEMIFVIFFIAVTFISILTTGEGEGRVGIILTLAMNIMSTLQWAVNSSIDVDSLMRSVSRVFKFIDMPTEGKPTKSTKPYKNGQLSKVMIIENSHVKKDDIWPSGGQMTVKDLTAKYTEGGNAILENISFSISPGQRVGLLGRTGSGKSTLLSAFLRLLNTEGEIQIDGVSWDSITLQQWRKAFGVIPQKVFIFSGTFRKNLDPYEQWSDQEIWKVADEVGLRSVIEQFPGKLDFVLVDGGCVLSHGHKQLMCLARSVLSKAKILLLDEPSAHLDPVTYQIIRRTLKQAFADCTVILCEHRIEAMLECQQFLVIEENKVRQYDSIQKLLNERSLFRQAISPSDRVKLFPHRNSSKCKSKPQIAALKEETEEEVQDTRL

Structure (SMILES) | YFP fluorescence and Ussing chamber short-circuit current in FRT-hCFTR cells, 10 [1] | pIC50 (Anoctamin1 (ANO1))
O=C(O)c1ccc(/C=C2\SC(=S)N(c3cccc(C(F)(F)F)c3)C2=O)cc1 [CFTRinh-172] | forskolin-induced CFTR activity was inhibited by CFTRinh172 (a known CFTR channel inhibitor) | –
CC/C(=C(/CC)c1ccc(O)cc1)c1ccc(O)cc1 [DES, diethylstilbestrol] | – | 5.18
